Experimental data as given in patent US12023319B2, “Carboxylic acid aromatic amides” (priority 2016, dated 2024).

target: T1, human Bradykinin B1 receptor (Homo sapiens, UniProt P46663); assay: Calcium flux assay (FLIPR), CHO-K1 cells expressing human Bradykinin B1 receptor, absence of 0.1% BSA (hB1 free IC50); format: cell-based; conditions: absence of 0.1% BSA in assay buffer
T1 construct: host or cells: CHO-K1
T1 sequence (P46663 1-353): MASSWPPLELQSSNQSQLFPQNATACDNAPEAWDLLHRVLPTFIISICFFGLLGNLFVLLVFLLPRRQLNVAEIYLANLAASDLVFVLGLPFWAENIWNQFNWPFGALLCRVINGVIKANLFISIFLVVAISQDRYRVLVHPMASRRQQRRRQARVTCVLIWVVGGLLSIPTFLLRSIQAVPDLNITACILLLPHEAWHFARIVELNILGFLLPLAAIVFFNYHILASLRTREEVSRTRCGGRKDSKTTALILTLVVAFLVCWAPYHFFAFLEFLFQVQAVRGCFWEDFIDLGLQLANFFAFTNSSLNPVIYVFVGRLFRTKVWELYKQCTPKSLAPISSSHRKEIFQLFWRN
In short: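 Peak FLIPR fluorescence (538 nm) after B1 agonist peptide addition gave IC50s, scaled between DMSO and full block by 20 µM Lys-(Des-Arg-Leu)-Bradykinin. Compounds were preincubated 30 min at 28° C with calcium-dye-loaded CHO-K1 cells expressing human B1, at 8 concentrations in triplicate, 1% DMSO final.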

Compared with `O=C(O)c1cc(NC(=O)C2(c3ccc(C(F)(F)F)cc3F)CC2)ccc1-c1cc2ccccc2s1` [Example 1, 2-(1-Benzothiophen-2-yl)-5-[({1-[2-fluoro-4-(trifluoromethyl)phenyl]cyclopropyl}carbonyl)amino]benzoic acid], `O=C(O)c1cc(NC(=O)C2(c3ccc(C(F)(F)F)cc3F)CC2)ccc1-c1ccc(C(F)(F)F)nc1` [Example 6, 5-[({1-[2-Fluoro-4-(trifluoromethyl)phenyl]cyclopropyl}carbonyl)amino]-2-[6-(trifluoromethyl)pyridin-3-yl]benzoic acid] is 32-fold higher in IC50: 6.5 nM for the first, 210 nM for the second. The first is the more potent here.

Compared with `CCC(F)(F)c1ccc(-c2ccc(NC(=O)C3(c4ccc(C(F)(F)F)cc4F)CC3)cc2C(=O)O)cn1` [Example 2, 2-[6-(1,1-Difluoropropyl)pyridin-3-yl]-5-[({1-[2-fluoro-4-(trifluoromethyl)-phenyl]cyclopropyl}carbonyl)amino]benzoic acid], `O=C(O)c1cc(NC(=O)C2(c3ccc(C(F)(F)F)cc3F)CC2)cc(F)c1-c1ccc(C(F)(F)F)nc1` [Example 29, 3-Fluoro-5-[({1-[2-fluoro-4-(trifluoromethyl)phenyl]cyclopropyl}carbonyl)amino]-2-[6-(trifluoromethyl)pyridin-3-yl]benzoic acid] is 1.8-fold lower in IC50: 24 nM for the first, 13 nM for the second. The second is the more potent here.

Compared with `O=C(O)c1cc(NC(=O)C2(c3ccc(C(F)(F)F)cc3F)CC2)ccc1-c1cnn(C2CCC2)c1` [Example 3, 2-(1-Cyclobutyl-1H-pyrazol-4-yl)-5-[({1-[2-fluoro-4-(trifluoromethyl)phenyl]cyclopropyl}carbonyl)amino]benzoic acid], `O=C(O)c1cc(NC(=O)C2(c3ccc(C(F)(F)F)cc3F)CC2)cc(F)c1-c1cnn(C2CCC2)c1` [Example 42, 2-(1-Cyclobutyl-1H-pyrazol-4-yl)-3-fluoro-5-[({1-[2-fluoro-4-(trifluoromethyl)phenyl]cyclopropyl}carbonyl)amino]benzoic acid] is 2.9-fold lower in IC50: 18 nM for the first, 6.3 nM for the second.

Compound `O=C(O)c1cc(NC(=O)C2(c3ccc(OC(F)(F)F)cc3F)CC2)ccc1-c1ccc(C(F)F)nc1` [Example 5, 2-[6-(Difluoromethyl)pyridin-3-yl]-5-[({1-[2-fluoro-4-(trifluoromethoxy)phenyl]cyclopropyl}carbonyl)amino]benzoic acid] has an IC50 of 86 nM.
